These results are taken from patent publication US7674813B2, “Heterocyclic sulfonamide inhibitors of beta amyloid production containing an azole” (Wyeth, priority 2004, dated 2010).

Data set [1] concerns amyloid precursor protein (APP) proteolysis. In words: Repressor Release Assay (RRA). Type of data set: cell-based. The settings on record: for fold induction at 20 µg/mL: Cricetulus griseus, CHO-K1, all compounds tested at 20 μg/mL, luciferase activity over diluent control, transfected CHO-K1 cells, read-out: RRA data (Fold increase of APPI). Put shortly: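 CHO-K1 cells transiently transfected with APP-lacI and pRSVO-luc, then treated in duplicate with compound for 36–48 h at 37° C. Luciferase read as fold increase over Hepes/DMSO diluent; active means ≥1.5-fold at 20 μg/mL and non-toxic, toxicity being <0.75-fold signal.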

For a further data set, the system named is beta amyloid protein. The settings on record: in vivo after oral administration; cited from earlier work.
For another data set, the system named is beta amyloid 42. In words: Aβ40/42 ELISA Assay (Aβ42). Type of data set: cell-based. The settings on record: CHO cells carrying the APP-REP-NL plasmid, 22 hours, sandwich ELISA. In a few lines:
(§1)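 Test compounds at 2 μM and below are applied for 22 h to CHO cells stably carrying APP-REP-NL. Secreted Aβ40 or Aβ42 in conditioned medium is measured by sandwich ELISA against synthetic peptide standards, using 6E10 capture with C-terminus-specific anti-Aβ40 or anti-Aβ42 detection. Toxicity is checked by MTS read-out; EC50 reported.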
A general note: An ELISA detects its analyte on a solid surface through an enzyme-linked reagent.

The next data set has as its system beta amyloid 40. In words: Aβ40/42 ELISA Assay (Aβ40). Type of data set: cell-based. Particulars: Cricetulus griseus; CHO cells carrying the APP-REP-NL plasmid, 22 hours, sandwich ELISA. In a few lines: as §1

For `C[C@H](NC(=O)Cc1cc(F)cc(F)c1)C(=O)N[C@H](C(=O)OC(C)(C)C)c1ccccc1` [DAPT, reference compound], the “fold increase in luciferase activity” value in data set [1] (at 20 μg/mL) was 18.5-28.1 fold increase. The “beta amyloid protein levels in mice brains” value in the data set with beta amyloid protein is given as “reduce beta amyloid protein levels”.

`CC(NS(=O)(=O)c1ccc(Cl)s1)c1ncnn1Cc1ccccc1` (stereo not shown) [Example 25, N-[1-(1-Benzyl-1H-1,2,4-triazol-5-yl)ethyl]-5-chlorothiophene-2-sulfonamide] yielded a melting point of 123 to 124 °C. In addition, the fold induction at 20 µg/mL in data set [1] was determined as 6.6. The same molecule yielded an EC50 with beta amyloid 42 (Cricetulus griseus) of 90 µM. The molecule also showed an EC50 in the data set with beta amyloid 40 of 42.5 µM.

With `CC(C)C(NS(=O)(=O)c1ccc(Cl)s1)c1cccn1Cc1ccccc1` (stereo not shown) [Example 31, N-[1-(1-Benzyl-1H-pyrrol-2-yl)-2-methylpropyl]-5-chlorothiophene-2-sulfonamide], the melting point fell in the range of 102 to 103 °C. Further, the fold induction at 20 µg/mL in data set [1] is 5.3. Further, the “Effect on Aβ42 production” value in the data set with beta amyloid 42 is “increase”. Further, the EC50 in the data set on beta amyloid 40 worked out at 26.7 µM.

The EC50 is the concentration giving half of the maximal effect. One may read the melting point as the temperature, or range, at which the solid turns liquid.
